# Laboratory results taken from ChEMBL document CHEMBL4419164, “Methods and compositions for inhibiting cnksr1” (2018).
# Active and inactive are the calls of the source. The calls are words filed in the database; no cut-off is given here.
# Legend:
# [1] = Drug metabolism in C57BL6 mouse plasma assessed as Cmax for 2-(4-oxo-3-((4-p-tolylthiazol-2-yl)methyl)-3,4-dihydrophthalazin-1-yl)acetic acid at 250 mg/kg, po dosed via gavage as single administration; format: ADME, organism-based; design: dose 250 mg/kg, route oral; conditions: in vivo
# [2] = Toxicity in SCID mouse xenografted with human NCI-H2122 cells assessed as induction of weight loss at 200 mg/kg/day dosed via gavage daily for 20 days; format: organism-based; conditions: in vivo, po, 480 h
# [3] = molecular target: T1, Connector enhancer of kinase suppressor of ras 1 (Homo sapiens) (UniProt Q969H4); test: Inhibition of CNKSR1 (unknown origin) assessed as reduction in inhibition of KRas signaling effectors by measuring p-AKT levels at 20 uM by cell based assay
# T1 sequence (whole entry): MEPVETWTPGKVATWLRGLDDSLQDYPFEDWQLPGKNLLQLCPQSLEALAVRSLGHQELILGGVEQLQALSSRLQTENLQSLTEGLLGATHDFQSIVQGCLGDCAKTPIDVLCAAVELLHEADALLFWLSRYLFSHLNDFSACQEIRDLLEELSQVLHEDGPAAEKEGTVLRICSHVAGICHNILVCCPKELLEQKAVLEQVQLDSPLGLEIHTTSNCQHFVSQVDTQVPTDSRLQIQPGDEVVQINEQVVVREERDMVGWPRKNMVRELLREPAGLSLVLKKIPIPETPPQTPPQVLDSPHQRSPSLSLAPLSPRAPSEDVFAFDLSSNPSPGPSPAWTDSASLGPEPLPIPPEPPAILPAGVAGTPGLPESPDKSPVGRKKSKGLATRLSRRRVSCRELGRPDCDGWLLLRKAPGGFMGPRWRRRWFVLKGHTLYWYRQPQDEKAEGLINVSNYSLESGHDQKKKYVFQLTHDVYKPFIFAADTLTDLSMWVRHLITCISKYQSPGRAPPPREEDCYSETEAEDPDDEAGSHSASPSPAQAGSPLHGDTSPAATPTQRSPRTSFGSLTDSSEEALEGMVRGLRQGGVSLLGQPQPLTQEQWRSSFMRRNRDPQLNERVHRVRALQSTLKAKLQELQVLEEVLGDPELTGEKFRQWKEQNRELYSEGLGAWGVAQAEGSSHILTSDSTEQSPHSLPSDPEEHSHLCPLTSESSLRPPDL
# HCC515 = test: Growth inhibition of human HCC515 cells relative to control; format: functional, cell-based
# [4] = molecular target: T2, carboxylesterase 1 (liver carboxylesterase 1) (Homo sapiens, UniProt P23141); test: Stability assessed as recombinant human carboxyesterase-1 mediated compound hydrolysis by measuring half life at 50 ug/ml at 37 degC at pH 7.4; format: ADME; conditions: recombinant human carboxylesterase-1, pH 7.4
# T2 sequence (P23141 whole entry): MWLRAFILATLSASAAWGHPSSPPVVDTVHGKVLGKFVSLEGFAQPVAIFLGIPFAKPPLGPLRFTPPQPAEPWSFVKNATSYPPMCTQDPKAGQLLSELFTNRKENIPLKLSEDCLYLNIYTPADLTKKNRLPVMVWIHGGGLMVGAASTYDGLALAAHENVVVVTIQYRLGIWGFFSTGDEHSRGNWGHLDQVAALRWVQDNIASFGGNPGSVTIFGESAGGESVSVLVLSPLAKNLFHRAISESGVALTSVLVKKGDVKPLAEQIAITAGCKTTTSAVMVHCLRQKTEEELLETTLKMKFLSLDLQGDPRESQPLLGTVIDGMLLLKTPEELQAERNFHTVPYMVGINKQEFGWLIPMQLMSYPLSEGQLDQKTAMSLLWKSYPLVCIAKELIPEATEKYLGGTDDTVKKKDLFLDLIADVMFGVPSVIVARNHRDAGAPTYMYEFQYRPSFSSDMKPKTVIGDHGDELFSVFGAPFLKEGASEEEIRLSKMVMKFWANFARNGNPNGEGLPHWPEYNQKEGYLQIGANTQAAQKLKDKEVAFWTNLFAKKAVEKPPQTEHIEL
# NCI-H2122 [5] = test: Growth inhibition of human NCI-H2122 cells incubated for 3 days; format: functional, cell-based; conditions: NCI-H2122, 72 h
# [6] = molecular target: T1, Connector enhancer of kinase suppressor of ras 1 (Homo sapiens); test: Inhibition of CNKSR1 (unknown origin) assessed as reduction in inhibition of KRas signaling effectors by measuring p-MAPK levels at 20 uM by cell based assay
# [7] = molecular target: T1, Connector enhancer of kinase suppressor of ras 1 (Homo sapiens); test: Inhibition of GFP-tagged CNKSR1 (unknown origin) expressed in HEK293T cells assessed as blocking of membrane colocalization of CNKSR1 and mutant-KRas at plasma membrane at 50 uM incubated for 4 hrs by confocal imaging assay; format: cell-based
# [8] = molecular target: T3, Connector enhancer of kinase suppressor of ras 1 (Homo sapiens, UniProt Q969H4); test: Binding affinity to CNKSR1 PH-domain (unknown origin) by SPR spectroscopy; conditions: read-out: Kd
# T3 sequence (Q969H4 whole entry): T1 sequence (whole entry)
# [9] = Half life in beagle dog plasma at 50 ug/ml at 37 degC at pH 7.4; format: ADME, cell-free, Canis lupus familiaris
# NCI-H1373 = test: Growth inhibition of human NCI-H1373 cells relative to control; format: functional, cell-based
# [10] = molecular target: T4, 3-phosphoinositide-dependent protein kinase 1 (Homo sapiens) (UniProt O15530); test: Binding affinity to PDPK1 PH-domain (unknown origin) at 0.01 to 50 uM by SPR spectroscopy
# T4 sequence (whole entry): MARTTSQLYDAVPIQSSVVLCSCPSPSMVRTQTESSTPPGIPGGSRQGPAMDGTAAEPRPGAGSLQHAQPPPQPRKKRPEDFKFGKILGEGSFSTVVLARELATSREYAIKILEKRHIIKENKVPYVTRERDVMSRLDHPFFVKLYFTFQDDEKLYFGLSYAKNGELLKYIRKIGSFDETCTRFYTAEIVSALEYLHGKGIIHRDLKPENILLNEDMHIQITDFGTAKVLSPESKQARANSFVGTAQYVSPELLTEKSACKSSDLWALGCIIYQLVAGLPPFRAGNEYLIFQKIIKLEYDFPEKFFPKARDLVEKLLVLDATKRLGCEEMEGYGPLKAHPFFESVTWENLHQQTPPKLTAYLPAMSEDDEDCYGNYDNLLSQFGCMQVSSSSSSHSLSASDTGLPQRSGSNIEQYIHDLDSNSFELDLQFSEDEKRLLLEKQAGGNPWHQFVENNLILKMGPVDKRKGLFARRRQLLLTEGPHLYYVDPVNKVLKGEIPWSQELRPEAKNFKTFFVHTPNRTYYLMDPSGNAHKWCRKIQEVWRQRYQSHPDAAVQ
# [11] = molecular target: Rho guanine nucleotide exchange factor TIAM1 (Homo sapiens) (UniProt Q13009); test: Binding affinity to TIAM1 PH-domain (unknown origin) at 0.01 to 50 uM by SPR spectroscopy
# Rho guanine nucleotide exchange factor TIAM1 (Homo sapiens), sequence (Q13009 whole entry): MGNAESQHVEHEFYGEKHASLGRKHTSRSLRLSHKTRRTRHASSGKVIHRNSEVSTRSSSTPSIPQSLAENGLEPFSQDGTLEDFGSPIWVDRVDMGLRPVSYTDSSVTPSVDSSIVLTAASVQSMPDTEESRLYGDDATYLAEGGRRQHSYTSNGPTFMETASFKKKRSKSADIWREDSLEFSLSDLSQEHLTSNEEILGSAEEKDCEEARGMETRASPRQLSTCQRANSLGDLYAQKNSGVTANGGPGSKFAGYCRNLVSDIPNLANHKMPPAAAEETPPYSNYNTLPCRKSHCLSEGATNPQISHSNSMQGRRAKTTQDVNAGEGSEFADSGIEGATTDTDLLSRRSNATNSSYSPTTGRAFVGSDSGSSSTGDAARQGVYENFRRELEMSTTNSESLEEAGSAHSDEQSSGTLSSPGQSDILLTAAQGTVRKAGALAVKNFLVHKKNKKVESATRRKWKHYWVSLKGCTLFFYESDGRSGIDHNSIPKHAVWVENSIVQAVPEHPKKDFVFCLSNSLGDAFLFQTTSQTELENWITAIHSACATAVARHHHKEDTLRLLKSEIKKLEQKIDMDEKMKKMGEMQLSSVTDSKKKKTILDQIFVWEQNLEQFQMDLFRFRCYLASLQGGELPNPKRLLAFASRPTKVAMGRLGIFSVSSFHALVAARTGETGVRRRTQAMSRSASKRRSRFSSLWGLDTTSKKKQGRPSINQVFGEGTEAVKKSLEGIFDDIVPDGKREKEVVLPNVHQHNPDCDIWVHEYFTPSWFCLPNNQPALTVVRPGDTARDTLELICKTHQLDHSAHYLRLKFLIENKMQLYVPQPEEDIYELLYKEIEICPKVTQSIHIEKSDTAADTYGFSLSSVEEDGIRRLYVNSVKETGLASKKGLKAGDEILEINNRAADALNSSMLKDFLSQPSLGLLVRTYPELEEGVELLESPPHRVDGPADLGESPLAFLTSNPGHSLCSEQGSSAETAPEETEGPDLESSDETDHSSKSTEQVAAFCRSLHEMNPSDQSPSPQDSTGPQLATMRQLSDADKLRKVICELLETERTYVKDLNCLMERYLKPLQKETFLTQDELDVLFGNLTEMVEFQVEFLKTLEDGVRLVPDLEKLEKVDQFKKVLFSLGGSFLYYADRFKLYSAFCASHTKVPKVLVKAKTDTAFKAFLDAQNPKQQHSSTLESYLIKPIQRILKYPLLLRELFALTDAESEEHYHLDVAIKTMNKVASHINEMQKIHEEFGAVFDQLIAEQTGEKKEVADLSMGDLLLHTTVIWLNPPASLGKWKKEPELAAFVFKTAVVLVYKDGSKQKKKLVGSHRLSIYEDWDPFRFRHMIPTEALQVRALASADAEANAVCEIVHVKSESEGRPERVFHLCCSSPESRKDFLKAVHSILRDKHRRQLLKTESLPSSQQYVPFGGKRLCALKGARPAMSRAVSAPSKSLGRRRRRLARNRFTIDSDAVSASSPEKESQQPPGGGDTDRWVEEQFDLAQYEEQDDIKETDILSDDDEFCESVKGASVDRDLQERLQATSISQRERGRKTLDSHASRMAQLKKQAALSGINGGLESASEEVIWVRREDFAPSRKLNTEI
# [12] = Half life in human plasma at 50 ug/ml at 37 degC at pH 7.4; format: ADME, cell-free
# NCI-H2122 [13] = test: Antitumor activity against human NCI-H2122 cells xenografted in SCID mouse assessed as inhibition of tumor growth at 200 mg/kg/day dosed via gavage daily for 20 days relative to control; format: functional; conditions: NCI-H2122, po, 480 h, read-out: TGI
# [14] = molecular target: T1, Connector enhancer of kinase suppressor of ras 1 (Homo sapiens); test: Inhibition of GFP-tagged CNKSR1 (unknown origin) expressed in HEK293T cells assessed as reduction in total mutant-KRas protein at 50 uM incubated for 4 hrs by confocal imaging assay; format: cell-based
compound,measurement,setting,value
CCOC(=O)Cc1nn(Cc2nc(-c3ccc(C)cc3)cs2)c(=O)c2ccccc12,Cmax,[1],128 µM
same,Activity,[2],Non-Toxic
same,inhibition,[3],Active
same,growth inhibition (GI),HCC515,Active
same,half-life at 50 ug/ml,[4],0.317 h
same,IC50,NCI-H2122 [5],27 µM
same,inhibition,[6],Active
same,inhibition,[7],Active
same,Kd,[8],1.8 to 3.2 µM
same,half-life at 50 ug/ml,[9],9.3 h
same,growth inhibition (GI),NCI-H1373,Active
same,Activity,[10],inactive
same,Activity,[11],inactive
same,t1/2,[12],Stable
same,inhibition in vivo at 200 mg/kg/day,NCI-H2122 [13],45%
same,inhibition,[14],Active
